In article PMC7450057, “Enhancing intracellular accumulation and target engagement of PROTACs with reversible covalent chemistry” (Nature Communications, 2020):
“And” between values parts separate entries of the source, which are not always exact repeats. Equal entries are not always repeated.

Assays:
[1] = biological target: T1, {BTK-PROTAC-CRBN} ternary complex (Homo sapiens, UniProt Q06187+Q96SW2); assay: BTK-SPPIER imaging of ternary complex formation in live cells; format: cell-based; conditions: HEK293T/17 cells, 10 µM
T1 construct: full-length CRBN was first cloned into pcDNA3 containing EGFP; expressed in transfected cells; host or cells: HEK293T/17
T1 sequence (Q06187 382-659 limits assumed): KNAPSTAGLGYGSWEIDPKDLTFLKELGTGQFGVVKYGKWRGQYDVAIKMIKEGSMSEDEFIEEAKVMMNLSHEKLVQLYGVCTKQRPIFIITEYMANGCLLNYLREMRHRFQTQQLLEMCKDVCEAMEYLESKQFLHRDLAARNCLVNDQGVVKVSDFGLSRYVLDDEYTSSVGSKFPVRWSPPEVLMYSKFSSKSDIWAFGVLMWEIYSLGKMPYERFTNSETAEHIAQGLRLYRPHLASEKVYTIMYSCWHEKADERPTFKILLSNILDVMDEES
T1 sequence (Q96SW2 whole entry): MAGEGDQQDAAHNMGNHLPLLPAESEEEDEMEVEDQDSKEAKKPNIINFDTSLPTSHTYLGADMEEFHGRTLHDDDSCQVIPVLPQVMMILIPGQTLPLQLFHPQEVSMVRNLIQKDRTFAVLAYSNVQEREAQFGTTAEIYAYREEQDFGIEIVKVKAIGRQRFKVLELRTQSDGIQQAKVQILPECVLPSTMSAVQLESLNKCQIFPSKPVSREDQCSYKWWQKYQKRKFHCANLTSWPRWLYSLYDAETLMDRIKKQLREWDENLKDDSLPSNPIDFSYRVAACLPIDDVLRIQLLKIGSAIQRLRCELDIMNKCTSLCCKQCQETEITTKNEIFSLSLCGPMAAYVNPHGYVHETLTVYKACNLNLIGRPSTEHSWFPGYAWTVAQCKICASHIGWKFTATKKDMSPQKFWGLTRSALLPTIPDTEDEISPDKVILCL
From the text: To visualize small molecule-induced protein–protein interactions (PPIs), we recently applied fluorophore phase transition-based principle and designed a PPI assay named separation of phases-based protein interaction reporter (SPPIER)[36]. A SPPIER protein design includes three domains, a protein-of-interest, an enhanced GFP (EGFP), and a homo-oligomeric tag (HOTag). Upon small molecule-induced PPI between two proteins-of-interest, multivalent PPIs from HOTags drive EGFP phase separation, forming brightly fluorescent droplets. […] If PROTACs can induce {BTK-PROTAC-CRBN} ternary complex formation in cells, they will crosslink the BTK^KD-EGFP-HOTag6 tetramers and the CRBN-EGFP-HOTag3 hexamers to produce EGFP phase separation, which can be conveniently visualized with a fluorescence microscope. […]
HEK293T/17 cells were transiently transfected with the plasmid using calcium phosphate transfection reagent or lipofectamine. […] Fluorescence images were acquired with an exposure time of 50 ms for EGFP. […]
For analysis of the SPPIER signal, images were processed in imageJ. The sum of droplet pixel fluorescence intensity and cell pixel intensity was scored using the Analyze Particle function in imageJ.

[2] = Pharmacokinetics of RC-1 in mice; format: in vivo, ICR mice
Protocol: The pharmacokinetic profile of the BTK PROTAC RC-1 was evaluated in female ICR mice (weighing 22-28 g, n = 3). RC-1 was formulated in a […] solvent (30% PEG-400, 5% Tween 80, and 5% DMSO in deionized water) and was administered in a single IP injection (20 mg kg^−1). Blood samples (25 µL) were withdrawn from the tail vein at the time points of 10 min, 30 min, 1 h, 2 h, 4 h, 8 h, and up to 24 h after dosing. The blood samples were collected into 1.5 mL centrifuge tubes coated with 0.5 M EDTA and were immediately centrifuged at 12,000 × g at 4 °C for 15 min. The resultant plasma was extracted with 9 vol of acetonitrile (containing internal standard: 250 nM of RNC-Ctrl) and then were centrifuged at the same conditions described above. The supernatant was stored at −80 °C for liquid chromatography-mass spectrometry analysis. The standard curve was established by serially diluted RC-1 in plasma collected from naïve mice (from 5.0 to 0.003 μg mL^−1, 4-fold dilution). The PK parameters were calculated with the Microsoft Excel PK Solver.

[3] = tested on: IKZF1; assay: Splenic IKZF1 level in mice after single RC-1 injection (western blot); format: in vivo, ICR mice; conditions: for IKZF1 level, mean: Figure 5d, DMSO = 100; for IKZF1 quantification: Supplementary Figure 8, individual animals
Protocol: To investigate the protein degradation effect of RC-1 in vivo, mice were subjected to single RC-1 administration at the dose of 50 or 100 mg kg^−1 (i.p.) or seven once-daily RC-1 administration at the dose of 20 mg kg^−1 (i.p.) (n = 2–3). Twenty-four hours after the one-time RC-1 injection or 24 h after the 7th injection, mice were anesthetized with isoflurane and the whole spleen was dissected and stored at −80 °C for western blot analysis of protein level.
Supplementary Figure 8. Protein degradation by BTK PROTAC RC-1 in mouse spleen. ICR mice were subjected to single IP injection of RC-1 at the dose of 50 mg/kg (n = 4) or 100 mg/kg (n = 3) and spleens were harvested 24 h after injection. (a) The splenic p-BTK(Y233), BTK, IKZF1 and IKZF3 levels were measured with Western blot. (b). Quantification of protein levels shown in (a). Data are presented as mean values ± SEM.
Asterisks indicate that the differences between samples are statistically significant, using two-tailed, unpaired t- […]
test (* p < 0.05; significant).
(1 picture or pasted object on this page, not shown here)

[4] = female, mouse, ip, 20 mg kg^−1, i.p., ICR mice, plasma

SMILES: CN(CCCNC(=O)CNc1cccc2c1C(=O)N(C1CCC(=O)NC1=O)C2=O)C(C)(C)C=C(C#N)C(=O)N1CCC[C@@H](n2nc(-c3ccc(Oc4ccccc4)cc3)c3c(N)ncnc32)C1 (stereo partly drawn) [RC-1]
- green fluorescent droplets (ternary complex formation) [1]: induced appreciable green fluorescent droplets
- AUC [2, 4]: 72 µM·h
- Cmax [2, 4]: 20 µM
- half-life ([2]; female, mouse, plasma, ip, 20 mg kg^−1, i.p., ICR mice, read-out: plasma half-life (t1/2) (converted)): 3.4 h
- plasma concentration maintained over 24 h ([2]; single i.p. injection 20 mg/kg): above 200 nM
- IKZF1 level, mean ([3]; 1 injection): 82.288
- IKZF1 level, mean ([3]; 7 injections): 77.6802
- IKZF1 quantification ([3]; RC-1 50 mg/kg, 50 mg/kg): 32.4273 and 61.2234 and 87.896 and 43.9089
- IKZF1 quantification ([3]; RC-1 100 mg/kg, 100 mg/kg): 24.57 and 78.1459 and 58.0151
